# Reference: ChEMBL document CHEMBL5465560, “Selectivity Literature for EUbOPEN Chemogenomic Library” (2024)
# What was measured:
# [1] = target: Rho-associated protein kinase 1 (Homo sapiens) (UniProt Q13464); test: Selectivity interaction (KinomeScan (DiscoverX)) EUB0000595a ROCK1; conditions: at 10 µM
# [2] = target: T1, Tyrosine-protein kinase JAK3 (Homo sapiens) (UniProt P52333); test: Selectivity interaction (KinomeScan (DiscoverX)) EUB0000045b JAK3; conditions: at 1 µM
# T1 sequence (whole entry): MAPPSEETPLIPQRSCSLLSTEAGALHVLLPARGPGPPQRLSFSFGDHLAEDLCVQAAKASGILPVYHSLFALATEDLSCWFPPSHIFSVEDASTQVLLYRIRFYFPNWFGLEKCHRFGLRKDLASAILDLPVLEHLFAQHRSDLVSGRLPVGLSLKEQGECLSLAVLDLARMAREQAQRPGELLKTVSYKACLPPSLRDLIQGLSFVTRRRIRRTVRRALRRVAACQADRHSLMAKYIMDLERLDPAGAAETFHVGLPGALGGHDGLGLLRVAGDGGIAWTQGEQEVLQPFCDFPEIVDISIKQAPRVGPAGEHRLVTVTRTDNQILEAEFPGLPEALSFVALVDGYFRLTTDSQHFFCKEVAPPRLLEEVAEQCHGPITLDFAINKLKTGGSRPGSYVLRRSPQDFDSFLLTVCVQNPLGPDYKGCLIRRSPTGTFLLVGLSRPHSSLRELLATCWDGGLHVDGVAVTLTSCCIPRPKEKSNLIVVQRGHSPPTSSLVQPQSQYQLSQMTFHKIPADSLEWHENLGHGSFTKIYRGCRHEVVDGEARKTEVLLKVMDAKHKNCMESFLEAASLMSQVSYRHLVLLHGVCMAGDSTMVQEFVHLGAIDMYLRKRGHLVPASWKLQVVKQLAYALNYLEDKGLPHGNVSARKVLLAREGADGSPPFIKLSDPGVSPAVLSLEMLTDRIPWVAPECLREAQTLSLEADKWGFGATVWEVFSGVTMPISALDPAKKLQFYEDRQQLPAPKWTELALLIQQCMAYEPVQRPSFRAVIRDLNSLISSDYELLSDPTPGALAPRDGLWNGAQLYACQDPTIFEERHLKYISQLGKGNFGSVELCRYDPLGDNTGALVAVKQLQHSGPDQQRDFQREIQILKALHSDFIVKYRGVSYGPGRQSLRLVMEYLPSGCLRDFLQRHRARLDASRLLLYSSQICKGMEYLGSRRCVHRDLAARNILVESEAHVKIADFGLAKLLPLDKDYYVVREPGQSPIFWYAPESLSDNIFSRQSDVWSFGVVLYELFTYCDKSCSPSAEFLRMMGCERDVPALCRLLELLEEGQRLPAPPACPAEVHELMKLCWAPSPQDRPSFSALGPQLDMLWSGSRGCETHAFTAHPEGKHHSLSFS
# [3] = target: Calcium/calmodulin-dependent protein kinase kinase 1 (Homo sapiens) (UniProt Q8N5S9); conditions: at 10 µM
# Calcium/calmodulin-dependent protein kinase kinase 1 (Homo sapiens), sequence (Q8N5S9 whole entry, looked up): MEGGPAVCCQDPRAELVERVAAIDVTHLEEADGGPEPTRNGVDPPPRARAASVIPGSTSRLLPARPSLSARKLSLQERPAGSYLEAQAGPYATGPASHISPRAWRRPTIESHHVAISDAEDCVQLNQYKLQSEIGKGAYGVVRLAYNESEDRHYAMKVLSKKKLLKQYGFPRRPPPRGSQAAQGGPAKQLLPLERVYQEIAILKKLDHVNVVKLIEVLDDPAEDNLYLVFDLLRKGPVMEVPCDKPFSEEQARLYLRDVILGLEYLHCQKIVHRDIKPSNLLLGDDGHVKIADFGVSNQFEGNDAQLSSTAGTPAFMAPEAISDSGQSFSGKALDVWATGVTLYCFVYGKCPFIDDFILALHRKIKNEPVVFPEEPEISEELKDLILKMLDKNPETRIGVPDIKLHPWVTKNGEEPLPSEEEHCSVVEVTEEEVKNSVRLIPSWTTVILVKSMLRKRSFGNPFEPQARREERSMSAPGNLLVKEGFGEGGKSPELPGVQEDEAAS
# [4] = target: T2, Serine/threonine-protein kinase Nek3 (Homo sapiens) (UniProt P51956); test: Selectivity interaction (KinomeScan (DiscoverX)) EUB0001619a NEK3; conditions: at 1 µM
# T2 sequence (whole entry): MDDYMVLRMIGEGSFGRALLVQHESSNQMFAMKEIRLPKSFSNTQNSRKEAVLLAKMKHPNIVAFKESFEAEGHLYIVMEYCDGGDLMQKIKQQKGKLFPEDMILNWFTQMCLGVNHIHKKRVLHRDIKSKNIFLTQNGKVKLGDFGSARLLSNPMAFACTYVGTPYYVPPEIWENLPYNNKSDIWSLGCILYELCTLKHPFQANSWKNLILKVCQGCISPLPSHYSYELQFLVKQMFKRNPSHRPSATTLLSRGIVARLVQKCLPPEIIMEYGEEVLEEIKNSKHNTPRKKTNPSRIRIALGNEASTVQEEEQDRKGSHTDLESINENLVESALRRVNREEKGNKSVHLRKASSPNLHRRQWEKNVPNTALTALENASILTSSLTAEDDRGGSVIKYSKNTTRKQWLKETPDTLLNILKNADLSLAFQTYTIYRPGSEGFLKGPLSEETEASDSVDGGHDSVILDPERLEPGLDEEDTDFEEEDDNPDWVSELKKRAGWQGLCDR
# [5] = target: Mitogen-activated protein kinase 11 (Homo sapiens) (UniProt Q15759); test: Selectivity interaction (KinomeScan (DiscoverX)) EUB0000618a MAPK11; conditions: at 10 µM
# Mitogen-activated protein kinase 11 (Homo sapiens), sequence (Q15759 whole entry): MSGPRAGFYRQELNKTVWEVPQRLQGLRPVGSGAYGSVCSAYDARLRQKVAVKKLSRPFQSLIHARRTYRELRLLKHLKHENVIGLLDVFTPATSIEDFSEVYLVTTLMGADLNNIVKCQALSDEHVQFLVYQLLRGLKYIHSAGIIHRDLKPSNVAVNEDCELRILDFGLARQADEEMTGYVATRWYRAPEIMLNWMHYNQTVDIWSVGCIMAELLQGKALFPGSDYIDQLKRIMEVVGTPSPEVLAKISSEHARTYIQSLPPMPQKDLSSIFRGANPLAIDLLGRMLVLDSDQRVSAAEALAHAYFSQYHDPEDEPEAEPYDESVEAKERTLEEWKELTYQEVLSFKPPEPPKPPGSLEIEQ
# [6] = target: T3, Rhodopsin kinase GRK7 (Homo sapiens) (UniProt Q8WTQ7); test: Selectivity interaction (Ambit KINOMEscan and KiNATiv profiling in Jurkat cells) EUB0000090b GRK7; type: cell-based; conditions: at 1 µM
# T3 sequence (whole entry): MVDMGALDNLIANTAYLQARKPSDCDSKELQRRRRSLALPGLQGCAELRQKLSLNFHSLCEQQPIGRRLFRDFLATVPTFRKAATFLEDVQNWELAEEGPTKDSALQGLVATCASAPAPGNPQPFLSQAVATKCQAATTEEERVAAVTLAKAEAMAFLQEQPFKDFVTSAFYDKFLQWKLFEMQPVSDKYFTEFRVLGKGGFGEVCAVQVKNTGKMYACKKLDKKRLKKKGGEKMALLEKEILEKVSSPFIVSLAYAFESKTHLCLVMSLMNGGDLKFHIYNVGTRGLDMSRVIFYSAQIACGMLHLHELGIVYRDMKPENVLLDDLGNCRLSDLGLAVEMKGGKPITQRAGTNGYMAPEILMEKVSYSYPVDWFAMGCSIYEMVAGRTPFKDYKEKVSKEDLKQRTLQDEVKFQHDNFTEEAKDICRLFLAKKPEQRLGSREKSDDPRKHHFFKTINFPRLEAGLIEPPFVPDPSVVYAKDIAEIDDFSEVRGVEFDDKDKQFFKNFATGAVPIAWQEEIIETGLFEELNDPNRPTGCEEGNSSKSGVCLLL
# Rho-associated protein kinase 1 (Homo sapiens), sequence (Q13464 2-1354 limits assumed): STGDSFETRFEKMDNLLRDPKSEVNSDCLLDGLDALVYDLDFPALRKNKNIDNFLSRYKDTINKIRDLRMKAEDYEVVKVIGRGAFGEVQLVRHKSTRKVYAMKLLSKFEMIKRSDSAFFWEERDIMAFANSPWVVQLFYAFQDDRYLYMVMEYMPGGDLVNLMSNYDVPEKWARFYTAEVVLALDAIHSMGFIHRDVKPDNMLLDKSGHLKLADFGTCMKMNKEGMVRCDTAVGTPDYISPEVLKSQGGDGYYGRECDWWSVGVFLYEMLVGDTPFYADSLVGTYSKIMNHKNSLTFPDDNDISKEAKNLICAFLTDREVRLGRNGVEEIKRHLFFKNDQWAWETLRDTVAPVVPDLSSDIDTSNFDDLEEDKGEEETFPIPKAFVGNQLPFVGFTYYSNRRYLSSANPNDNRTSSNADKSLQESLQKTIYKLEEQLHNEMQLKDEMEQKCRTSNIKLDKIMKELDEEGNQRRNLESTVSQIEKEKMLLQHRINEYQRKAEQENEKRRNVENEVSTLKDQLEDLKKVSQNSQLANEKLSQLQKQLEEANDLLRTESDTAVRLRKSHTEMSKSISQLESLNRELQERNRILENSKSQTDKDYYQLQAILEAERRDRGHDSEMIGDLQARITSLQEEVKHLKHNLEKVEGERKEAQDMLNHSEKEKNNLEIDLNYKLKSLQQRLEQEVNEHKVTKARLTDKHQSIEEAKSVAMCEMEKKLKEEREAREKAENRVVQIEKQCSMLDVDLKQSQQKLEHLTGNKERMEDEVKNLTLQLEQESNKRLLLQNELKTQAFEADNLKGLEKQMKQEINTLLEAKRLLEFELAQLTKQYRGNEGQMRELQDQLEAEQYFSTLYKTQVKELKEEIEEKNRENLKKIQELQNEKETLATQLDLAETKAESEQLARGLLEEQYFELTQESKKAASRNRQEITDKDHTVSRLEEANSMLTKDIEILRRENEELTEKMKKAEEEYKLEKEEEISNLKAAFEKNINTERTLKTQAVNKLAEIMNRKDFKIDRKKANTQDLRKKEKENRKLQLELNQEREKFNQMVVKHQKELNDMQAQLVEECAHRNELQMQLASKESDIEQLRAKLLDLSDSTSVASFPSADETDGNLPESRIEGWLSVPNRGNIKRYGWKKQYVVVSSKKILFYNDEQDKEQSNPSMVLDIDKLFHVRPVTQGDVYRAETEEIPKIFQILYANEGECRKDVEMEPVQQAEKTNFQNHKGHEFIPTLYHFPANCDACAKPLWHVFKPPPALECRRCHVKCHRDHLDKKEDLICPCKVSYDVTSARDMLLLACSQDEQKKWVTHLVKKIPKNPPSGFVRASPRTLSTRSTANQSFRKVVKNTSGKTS
smiles,measurement,setting,value
COCC(=O)NC/C=C/c1ccc2ncnc(Nc3ccc(Oc4ccc(C)nc4)c(C)c3)c2c1 [CP-724714],% of control,[1],100%
C=CC(=O)Nc1cc(-n2c(=O)ccc3cnc4ccc(-c5ccc(NS(C)(=O)=O)cc5)cc4c32)ccc1C,% of control,[2],6.6%
Cc1cc([C@@H](C)Nc2ccccc2C(=O)O)c2nc(N3CCOCC3)cc(=O)n2c1 [AZD-6482],% of control,[3],98%
N#Cc1cccc(-c2c[nH]c3ncnc(N4CCOCC4)c23)c1,% of control,[4],100%
O[C@H]1CC[C@H](Nc2ncc3nc(Nc4c(F)cc(F)cc4F)n([C@H]4CCOC4)c3n2)CC1,% of control,[5],24%
CN(C)C/C=C/C(=O)Nc1ccc(C(=O)N2CCCC(Nc3ncc(Cl)c(-c4c[nH]c5ccccc45)n3)C2)cc1 (stereo unspecified),% of control,[6],70%
